In one experiment the test system is mast cells. Briefly: Histamine release assay (compound 48/80 stimulated mast cells). In kind it is cell-based, Wistar rats. To be noted: 2 × 10^−5 M, rat peritoneal mast cells; for inhibition at 20 µM: Rattus norvegicus, Mast cell, read-out: Percentage Inhibition of Histamine Release. How it is done: (§1) The compounds were assessed for their ability to stabilize mast cell membranes in vitro. Mast cells treated with the compounds and un-treated mast cells were stimulated to release histamine. A reduction in histamine release by the treated cells compared to the untreated cells indicates stabilisation of the membrane. The compounds were assessed for their ability to relax smooth muscle in vitro. Intestinal smooth muscle was stimulated to contract, using calcium chloride and subsequently treated with the compounds, relaxation of the contraction was measured for each compound. The effects of the compounds were also studied on relaxation of guinea-pig tracheal muscle. In the rat paw oedema test, the drugs were administered systemically prior to inducing inflammation by the injection of carageenan below the plantar aponeurosis of the hind paw. The volume of the paw was determined both before and after treatment as an index of oedema. In the mouse ear oedema test, the drugs were administered topically prior to inducing inflammation by the topical application of arachidonic acid. The width of the ear was determined both before and after treatment as an index of oedema.
The buffered salt solution (BSS) was prepared in advance (NaCl 137 mM; KCl 2.7 mM; MgCl2 1.0 mM; CaCl2 0.5 mM, NaH2PO4 0.4 mM; Glucose 5.6 mM; HEPES 10 mM). This was dispensed into test tubes and heated to 37° C., each test tube contained 4.5 ml BSS. The solvent blank was supplemented with 0.5% (v/v) dimethyl sulphoxide (DMSO) or 0.5% (v/v) distilled water (dH2O). The two positive controls were supplemented with 0.5% (v/v) dH2O/2×10^−5M disodium cromoglycate (DSCG) and 0.5% (v/v) DMSO/2×10^−5M DSCG. The test compounds' incubation tubes contained 2×10^−5M test compound/0.5% (v/v) DMSO. The basal release, maximum release and total histamine content incubation tubes contained no additions.
Female Wistar rats (200-300 g) were killed in an atmosphere of saturated CO2. Pre-warmed BSS (10 ml) was injected i.p. and the abdomen was massaged for 3 min. The BSS, with suspended mast cells and other cells, was aspirated following a mid-line incision. The aspirate was centrifuged for 5 min at 400 g and the supernatant removed. The cells were re-suspended in BSS, at 4° C., and centrifuged as before the cells were washed in this manner a total of three times. Following the final wash, the pelleted cells were stored at 4° C., for use as soon as possible.
The cells were re-suspended in 7 ml BSS. From this, 0.5 ml aliquots were transferred to each of the incubation tubes. After 10 min at 37° C. with gentle agitation, Compound 48/80 was added to a final concentration of […], in order to stimulate histamine release. The cell stimulation was stopped after 2 min by the addition of 0.5 ml ice cold BSS, the incubation tubes were transferred to an ice bath. The cell suspensions were centrifuged for 5 min at 400 g. The “total histamine content” tube was placed at 100° C. for 2 min prior to centrifugation. The supernatants were retained for histamine assay.
To 2 ml of supernatant from each tube was added 0.4 ml of 1M NaOH and 0.1 ml oPT (1% (w/v) in methanol). This was incubated at room temperature for 4 min. The reaction was stopped by the addition of 0.2 ml of 3M HCl. The supernatant from each incubation tube was assayed in duplicate and run simultaneously with a standard curve in the range 0-1000 ng/ml. The presence of the fluorescent product of the reaction was measured using a Shimazu RF-1501 spectrofluorophotometer set at λex=360 nm, λem=450 nm.
Each drug was tested on at least five animals (n=5). The results were expressed as a percentage of maximum, compound 48/80 induced, histamine release in the solvent blank sample. Each drug was compared to DSCG on the same tissues. The basal histamine release in untreated cells was noted, expressed as a percentage of the total histamine content of the cells in suspension. […]

Another experiment relates to ileum. Briefly: Smooth muscle effects: CaCl2 induced contractions of ileum. Further details: species or system Guinea pigs. To be noted: for inhibition at 3 µM / inhibition at 0.3 µM / inhibition at 0.03 µM / inhibition at 10 µM / inhibition at 1 µM / inhibition at 0.1 µM: Cavia porcellus, read-out: Percentage Inhibition of CaCl2 Induced Contractions. Here is the method: as §1
Guinea pigs (350 g approx.), of either sex, were killed in an atmosphere of saturated CO2. The abdomen was opened by a mid-line incision and the small intestine was removed. The trachea was removed and sectioned between the cartilage rings, which were then split through.
Segments of ileum (1-1.5 cm) were suspended in a high potassium, no calcium Krebs buffer (NaCl 160.44 mM); KCl 45 mM; MgCl2 0.54 mM; NaH2PO4 0.89 mM; NaH2CO3 24.9 mM; Glucose 11.1 mM). Tracheal sections were suspended in normal Krebs buffer (NaCl […]; KCl 4.7 mM; CaCl2 2.5 mM; MgCl2 0.54 mM; NaH2PO4 0.89 mM; NaHCO3 24.9 mM; Glucose 11.1 mM). The solutions were maintained at 37° C. by a jacketed organ bath and gassed with 95% O2 and 5% CO2. The tissues were anchored by thread to the bottom of the organ bath and suspended from force displacement transducers under a resting tension of 1 g approx. in the case of ileum and 4 g approx. in the case of trachea. Isotonic contractions were recorded using a MacLab/4e system in conjunction with the Chart 3.3.1 software package. Surplus tissue was stored at 4° C. in Krebs buffer, for a maximum of 48 hours.
Four segments of tissue were suspended and observed concurrently. Contractions were initiated by the addition of 25 μl of 1M CaCl2 (a final concentration of 2.5 mM). The contractions stabilized with time, 10-15 min, and could be maintained for up to 45 min. from the addition of the CaCl2. The tracheal sections were allowed to develop spontaneous resting tension over a period of 30 mins.
Stock solutions of drug were prepared at 10^−3M in 50% (v/v) DMSO. These were diluted to give; 10^−4M in 5% (v/v) DMSO and 10^−5M in 0.5% (v/v) DMSO. In cases of poor solubility the 10^−3M stock was made up in higher concentrations of DMSO. Solvent ‘blank’ solutions were prepared containing 50%, 5% and 0.5% (v/v) DMSO (or as appropriate). […] A second cumulative dose-response assay was carried out using DMSO ‘blank’ solutions only.
Each drug was tested, in duplicate, on at least three different animals (n=3). The results were expressed as percentage inhibition of the CaCl2 induced contraction in the case of ideal tissue and percentage relaxation in the case of tracheal tissue, for each tissue, at each concentration of drug in DMSO. The effect of DMSO, for each tissue at each concentration, was subtracted from the effect of the drug in DMSO, to give the effect of the drug alone. A log dose vs. response curve was plotted for each drug using the mean and the standard error of the mean for the cumulated results.

[1] abbreviates: 3 × 10^−6 M, guinea pig ileum, DMSO effect subtracted.
The mark [2] stands for this setting: 3 × 10^−7 M, guinea pig ileum, DMSO effect subtracted.
Setting [3] is: 3 × 10^−8 M, guinea pig ileum, DMSO effect subtracted.
Where [4] appears, read: 10^−5 M, guinea pig ileum, DMSO effect subtracted.
[5] abbreviates: 10^−6 M, guinea pig ileum, DMSO effect subtracted.
Setting [6] is: 10^−7 M, guinea pig ileum, DMSO effect subtracted.

Where a name gives a salt, the structure may show the parent alone. Read-outs that look alike come from different tables or passages of the source.

In the case of `OC1CC(NC2CCc3ccccc32)c2ccccc21` (centres unmarked) [Compound 5C4, 3-(N-1-indanylamino)indan-1-ol], the inhibition at 20 µM with mast cells worked out at 5.68%. The inhibition at 3 µM in the experiment with ileum (setting [1]) was found to be 5.08%. Also, in the experiment with ileum (setting [2]), the inhibition at 0.3 µM is -0.99%. The inhibition at 0.03 µM in the experiment on ileum (setting [3]) was -0.86%. In addition, in the experiment with ileum (setting [4]), the inhibition at 10 µM was 19.1%. In the experiment with ileum (setting [5]), the inhibition at 1 µM is 1.15%. In addition, in the experiment on ileum (setting [6]), the inhibition at 0.1 µM was -0.86%.
With `O=C1CC(N(Cc2ccccc2)C2CCc3ccccc32)c2ccccc21` (centres unmarked) [Compound 5C7, 3-(N-benzyl-N-1-indanylamino)-indan-1-one], the inhibition at 20 µM in the experiment with mast cells is 24.1%. Also, in the experiment on ileum, the inhibition at 0.03 µM was determined as 0.16%, the inhibition at 0.1 µM was -0.44%, the inhibition at 0.3 µM was -0.36% and the inhibition at 1 µM is -1.72%. Besides, in the experiment with ileum, the inhibition at 3 µM came out at 0% and the inhibition at 10 µM worked out at 2.06%.
Consider `O=C1CC(N(Cc2ccccc2)C2Cc3ccccc3C2)c2ccccc21` (centres unmarked) [Compound 6C8, 3-(N-benzyl-N-2-indanylamino)-indan-1-one], for which the inhibition at 20 µM in the experiment with mast cells is 88.6%. Further, in the experiment on ileum, the inhibition at 0.03 µM was 1.97%, the inhibition at 0.1 µM was determined as 2.94%, the inhibition at 0.3 µM was found to be 3.26% and the inhibition at 1 µM came to 4.69%. Moreover, in the experiment with ileum, the inhibition at 3 µM is 11.3% and the inhibition at 10 µM is 31.1%.
Regarding `O=C1CC(NC2CCc3ccccc32)c2ccccc21` (centres unmarked) [Compound 5C3, 3-(N-1-indanylamino)-indan-1-one], the “Percentage Inhibition of Histamine Release” value with mast cells was 32.77%. In addition, the inhibition at 3 µM in the experiment on ileum (setting [1]) amounted to 15.1%. The inhibition at 0.3 µM in the experiment with ileum (setting [2]) is 3.78%. Further, the inhibition at 0.03 µM in the experiment on ileum (setting [3]) was found to be 0.53%. Besides, the inhibition at 10 µM in the experiment on ileum (setting [4]) was found to be 30%. The inhibition at 1 µM in the experiment with ileum (setting [5]) is 7.21%. In the experiment on ileum (setting [6]), the inhibition at 0.1 µM worked out at 2.61%.
As for `CN(C1CCc2ccccc21)C1CC(=O)c2ccccc21` (centres unmarked) [Compound 5C5, 3-(N-methyl-N-1-indanylamino)-indan-1-one], the inhibition at 20 µM in the experiment on mast cells is 58.7%. Besides, the inhibition at 3 µM with ileum (setting [1]) was 3.56%. Moreover, the inhibition at 0.3 µM with ileum (setting [2]) was found to be 0.43%. The inhibition at 0.03 µM with ileum (setting [3]) was -0.26%. In addition, the inhibition at 10 µM with ileum (setting [4]) was determined as 10.5%. In addition, the inhibition at 1 µM in the experiment on ileum (setting [5]) was found to be 1.56%. Moreover, the inhibition at 0.1 µM with ileum (setting [6]) was found to be 0.28%.
For the compound `C=CCN(C1Cc2ccccc2C1)C1CC(=O)c2ccccc21` (centres unmarked) [Compound 6C12, 3-(N-prop-2-enyl-N-2-indanylamino)-indan-1-one hydrochloride], in the experiment on mast cells (hydrochloride), the “Percentage Inhibition of Histamine Release” value came to 91.35%.
Still for that read-out and setting: in the case of `C=CCN(C1CCc2ccccc21)C1CC(=O)c2ccccc21` (centres unmarked) [Compound 5C11, 3-(N-prop-2-enyl-N-1-indanylamino)-indan-1-one hydrochloride] it was 90.27%; in that of `O=C1CC(NC2CCc3ccccc32)c2ccccc21` (centres unmarked) [Compound 5C8, 3-(N-1-indanylamino) -indan-1-one. Hydrochloride], 14.33%.
In the case of `O=C1CC(NC2Cc3ccccc3C2)c2ccccc21` (centres unmarked) [Compound 6C9, 3-(N-2-indanylamino)indan-1-one. Hydrochloride], the “Percentage Inhibition of Histamine Release” value with mast cells (hydrochloride) was found to be 43.60%. The “Percentage Inhibition of CaCl2 Induced Contractions” value with ileum (3 × 10^−6 M, guinea pig ileum, DMSO effect subtracted, Hydrochloride) is on record as −0.86%; in the experiment on ileum (3 × 10^−7 M, guinea pig ileum, DMSO effect subtracted, Hydrochloride), −1.76%; in the experiment with ileum (3 × 10^−8 M, guinea pig ileum, DMSO effect subtracted, Hydrochloride) it was 0.31%; with ileum (10^−5 M, guinea pig ileum, DMSO effect subtracted, Hydrochloride), 1.58%; in the experiment with ileum (10^−6 M, guinea pig ileum, DMSO effect subtracted, Hydrochloride), −2.94%; with ileum (10^−7 M, guinea pig ileum, DMSO effect subtracted, Hydrochloride), 0.61%.
As for `C=CCN(C1CCc2ccccc21)C1CC(=O)c2ccccc21` (centres unmarked) [5C6 BR], the “Percentage Inhibition of Histamine Release” value in the experiment with mast cells is on record as 78.84%. Also, the inhibition at 3 µM in the experiment with ileum (setting [1]) worked out at 8.72%. In addition, the inhibition at 10 µM in the experiment with ileum (setting [4]) is 31.6%.
With `O=C1CC(NC2Cc3ccccc3C2)c2ccccc21` (centres unmarked) [Compound 6C4, 3-(N-2-indanylamino)-indan-1-one], in the experiment with mast cells, the “Percentage Inhibition of Histamine Release” value came out at 14.92%. The “Percentage Inhibition of CaCl2 Induced Contractions” value is recorded as 17.11% with ileum (setting [1]); 4.63% with ileum (setting [2]); 2.16% with ileum (setting [3]); 33.46% with ileum (setting [4]); 8.84% with ileum (setting [5]); 3.02% in the experiment on ileum (setting [6]).
With `Cc1ccc(S(=O)(=O)N(C2CCc3ccccc32)C2CC(=O)c3ccccc32)cc1` (centres unmarked) [Compound 5C10, N-1-Indanyl-N-3-indan-1-onyl-p-toluenesulfonamide], in the experiment with mast cells, the inhibition at 20 µM stood at 40.8%.

The values are drawn from patent US6423752B1, “Indane dimer compounds with smooth muscle relaxing and/or mast cell stabilizing and/or anti-inflammatory activity” (Venantius Limited, priority 1995, dated 2002).
